Results published in patent publication US20240262801A1, “COMPOUNDS HAVING 5-(2-FLUORO-6-HYDROXYPHENYL)-1,2,5-THIADIAZOLIDIN-3-ONE 1,1-DIOXIDE AS INHIBITORS OF PROTEIN KINASE PHOSPHATASE ENZYMES” (Ness Therapeutics, Inc., priority 2021, published 2024).
Like-named read-outs stand apart in the source and are kept apart here.

Legend:
[1] = target: T1, GST-tagged PTPN2 protein (Homo sapiens, UniProt P17706); experiment: Primary assay of PTPN2 enzymatic activity inhibition (DiFMUP fluorescence); type: biochemical; details: DiFMUP substrate 2 μM, 60 min at RT
T1 construct: purchased ActiveMotif 31592
T1 sequence (P17706 with tags, fused parts or gaps): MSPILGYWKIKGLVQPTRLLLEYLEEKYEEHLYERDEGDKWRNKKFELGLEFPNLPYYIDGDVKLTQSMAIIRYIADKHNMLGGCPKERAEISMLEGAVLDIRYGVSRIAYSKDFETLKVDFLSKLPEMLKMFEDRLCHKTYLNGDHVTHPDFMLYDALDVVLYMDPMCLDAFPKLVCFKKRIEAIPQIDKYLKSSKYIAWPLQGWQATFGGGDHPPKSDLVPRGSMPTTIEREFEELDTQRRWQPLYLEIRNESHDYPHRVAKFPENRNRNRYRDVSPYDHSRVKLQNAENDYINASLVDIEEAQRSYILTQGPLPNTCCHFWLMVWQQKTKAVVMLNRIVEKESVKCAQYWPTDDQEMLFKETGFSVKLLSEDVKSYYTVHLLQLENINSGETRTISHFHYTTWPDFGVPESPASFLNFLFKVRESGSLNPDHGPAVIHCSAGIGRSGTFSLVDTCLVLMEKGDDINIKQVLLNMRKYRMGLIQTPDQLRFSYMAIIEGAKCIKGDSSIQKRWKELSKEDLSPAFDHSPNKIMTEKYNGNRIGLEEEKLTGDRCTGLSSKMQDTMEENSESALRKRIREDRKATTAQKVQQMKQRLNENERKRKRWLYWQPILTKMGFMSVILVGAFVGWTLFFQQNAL
Description: Compound activity was determined using GST-tagged PTPN2 protein (Cat #31592, ActiveMotif) (SEQ ID NO: 1) in an in vitro enzymatic reaction. The enzymatic reaction was carried out in assay buffer (50 mM HEPES Na salt pH 7.2-7.4, 2 mM EDTA, 100 mM NaCl, 52 ng/μL BSA, and 6 mM DTT). The compounds were dispensed on a 384 well Diamond Well Plate (Axigen, Cat #P-384-120SQ-C-S) using the Biomek FX liquid handling system at 100× solutions of compounds in DMSO. 2× PTPN2 (final concentration 0.004 ng/μL) was prepared in 1× Assay buffer and 25 μL of mixture per well was added into Reaction plate (Optiplate, black, Perkin Elmer, Cat #6007270). Add 25 μL of 1× buffer to Ctrl- (Substrate w/o PTPN2) wells followed by centrifugation at 100 g for 1 min. Next step the Compounds were added to Reaction plate using Biomek station via following steps: 3 ul of 100× compounds (in DMSO) were mixed with 27 μL of Assay Buffer, then 5 μL of this mixture was added to Reaction plate with 25 μL of PTPN2 Mix. Plates were centrifuged for 1 min at 100 g and incubated for another 10 minutes at room temperature. Finally, 20 μL of 2.5× Substrate (DiFUMP, Invitrogen™ Cat #D6567) mix was added into appropriate wells of Reaction plate to the final concentration of 2 μM, plate was centrifuged at 100 g for 1 min followed by incubation at RT for 60 min, and the Fluorescence Intensity was measured using a Microplate Reader (ClarioStar Plus, excitation 360 nm, emission 450 nm). The % inhibition was then used to calculate the IC50 values. The IC50 values are shown in Table A1, wherein “A” corresponds to IC50<5.0 nm, “B” corresponds to 5.0 nm≤IC50<10.0 nm, “C” corresponds to 10.0 nm≤IC50<50.0 nm, “D” corresponds to 50.0 nm≤IC50<100.0 nm, and “E” corresponds to 100.0 nm≤IC50<500.0 nm, and “F” corresponds to 500.0 nm≤IC50.

[2] = tested on: B16F10 mouse melanoma cells; experiment: Tumor cells B16F10 cellular growth IFNγ-induced inhibition assay (CellTiter-Glo); type: cell-based; details: for IC50: B16-F10, 72 h, 3 days incubation; for inhibition at 100 µM: B16-F10, B16F10, 100 μM compound
Description: B16F10 mouse melanoma cells (ATCC Cat #CRL-6475) were seeded at a density of 500 cells per well in a 384-well clear bottom plate (Corning Cat #3712, Corning, N.Y.) in 40 μL total volume of DMEM+10% FBS (PanEco Cat #C420, Russia and Sigma Cat #F4135, St. Louis, Mo.). Cells were allowed to adhere overnight at 37° C., 5% CO2. On the following day, 250× solutions of compounds in DMSO (Sigma Cat #D2650) were prepared into […] plate (Diamond Well Plate, Axigen, Cat #P-384-120SQ-C-S) (final concentration of 1×) and DMSO only controls were included. Dilution Plate (Diamond Well Plate (Axigen, Cat #P-384-120SQ-C-S) was prepared by adding 49 μL of culture medium per well: half of the plate with culture medium only, half with culture medium+IFNγ (5 ng/ml). A 1 μL aliquot of 250× compounds ([…] plate) was added to 49 μL of culture medium (Dilution plate), then a 10 μL aliqut of the mixture was transferred to Reaction plate with 40 μL of cells followed by centrifugation at 240 g for 1 min. After 3 days of incubation, 10 μL of CellTiter-Glo (Promega) was added to the cells, plates were centrifuged at 240 g for 1 min, and luminescence signal was measured. For each compound, the percent growth inhibition at every compound dose level was calculated relative to the “DMSO/with IFNγ” control and used to determine the IC50.

[3] = B16F10, + IFNγ, read-out: IC50 + IFNγ
[4] = B16F10, no IFNγ, read-out: IC50 no IFNγ
[5] = + IFNγ, read-out: % Growth Inhibition at 100 μM + IFNγ
[6] = no IFNγ, read-out: % Growth Inhibition at 100 μM no IFNγ

Compound	IC50 [1] [nM]	IC50 [2, 3] [µM]	IC50 [2, 4] [µM]	inhibition at 100 µM [2, 5] [%]	inhibition at 100 µM [2, 6] [%]
COc1ccc(-c2cc(O)c(N3CC(=O)NS3(=O)=O)c(F)c2)cc1 [Example 3, 5-(3-fluoro-5-hydroxy-4′-methoxybiphenyl-4-yl)-1,2,5-thiadiazolidin-3-one 1,1-dioxide]	100 to 500	≥ 100	≥ 100	10 to 50	10 to 50
COc1ccc(NC(=O)Nc2cc(O)c(N3CC(=O)NS3(=O)=O)c(F)c2)cc1 [Example 37, 1-[4-(1,1-dioxido-4-oxo-1,2,5-thiadiazolidin-2-yl)-3-fluoro-5-hydroxyphenyl]-3-(4-methoxyphenyl)urea]	< 5	≥ 100	≥ 100	10 to 50	10 to 50
O=C1CN(c2c(O)cc(NC(=O)N[C@H](CO)c3ccccc3)cc2F)S(=O)(=O)N1 [Example 103, 1-[3-fluoro-5-hydroxy-4-(1,1,4-trioxo-1,2,5-thiadiazolidin-2-yl)phenyl]-3-[(1S)-2-hydroxy-1-phenylethyl]urea]	5 to 10	< 5	≥ 100	75 to 100	10 to 50
O=C1CN(c2c(O)cc(NC(=O)N[C@@H]3c4ccccc4C[C@@H]3O)cc2F)S(=O)(=O)N1 [Example 108, 1-[3-fluoro-5-hydroxy-4-(1,1,4-trioxo-1,2,5-thiadiazolidin-2-yl)phenyl]-3-[(1R,2S)-2-hydroxyindan-1-yl]urea]	10 to 50	10 to 50	≥ 100	50 to 75	10 to 50
O=C1CN(c2c(O)cc(NC(=O)Nc3cccc(F)c3)cc2F)S(=O)(=O)N1 [Example 54, 1-[4-(1,1-dioxido-4-oxo-1,2,5-thiadiazolidin-2-yl)-3-fluoro-5-hydroxyphenyl]-3-(3-fluorophenyl)urea]	< 5	10 to 50	≥ 100	50 to 75	10 to 50
O=C1CN(c2c(O)cc(NS(=O)(=O)c3ccccc3F)cc2F)S(=O)(=O)N1 [Example 21, N-[4-(1,1-dioxido-4-oxo-1,2,5-thiadiazolidin-2-yl)-3-fluoro-5-hydroxyphenyl]-2-fluorobenzenesulfonamide]	100 to 500	10 to 50	≥ 100	50 to 75	10 to 50
COc1ccc(C(=O)Nc2cc(O)c(N3CC(=O)NS3(=O)=O)c(F)c2)cc1OC [Example 14, N-[4-(1,1-dioxido-4-oxo-1,2,5-thiadiazolidin-2-yl)-3-fluoro-5-hydroxyphenyl]-3,4-dimethoxybenzamide]	100 to 500	10 to 50	≥ 100	50 to 75	10 to 50
Cc1ccccc1NC(=O)Nc1cc(O)c(N2CC(=O)NS2(=O)=O)c(F)c1 [Example 39, 1-[4-(1,1-dioxido-4-oxo-1,2,5-thiadiazolidin-2-yl)-3-fluoro-5-hydroxyphenyl]-3-(2-methylphenyl)urea]	10 to 50	50 to 100	≥ 100	50 to 75	10 to 50
O=C1CN(c2c(O)cc(NC(=O)Nc3ccc(Cl)cc3)cc2F)S(=O)(=O)N1 [Example 47, 1-(4-chlorophenyl)-3-[4-(1,1-dioxido-4-oxo-1,2,5-thiadiazolidin-2-yl)-3-fluoro-5-hydroxyphenyl]urea]	< 5	50 to 100	≥ 100	50 to 75	10 to 50
O=C1CN(c2c(O)cc(NC(=O)NC3CCCCC3O)cc2F)S(=O)(=O)N1 (stereo not drawn) [Example 105, 1-[3-fluoro-5-hydroxy-4-(1,1,4-trioxo-1,2,5-thiadiazolidin-2-yl)phenyl]-3-(2-hydroxycyclohexyl)urea]	< 5	5 to 10	≥ 100	75 to 100	10 to 50
O=C1CN(c2c(O)cc(NC(=O)NC34CC(CO)(C3)C4)cc2F)S(=O)(=O)N1 [Example 111, 1-[3-fluoro-5-hydroxy-4-(1,1,4-trioxo-1,2,5-thiadiazolidin-2-yl)phenyl]-3-[3-(hydroxymethyl)-1-bicyclo[1.1.1]pentanyl]urea]	< 5	10 to 50	≥ 100	75 to 100	10 to 50
CC(C)(C)c1ccc(S(=O)(=O)Nc2cc(O)c(N3CC(=O)NS3(=O)=O)c(F)c2)cc1 [Example 24, 4-tert-butyl-N-[4-(1,1-dioxido-4-oxo-1,2,5-thiadiazolidin-2-yl)-3-fluoro-5-hydroxyphenyl]benzenesulfonamide]	10 to 50	≥ 100	≥ 100	50 to 75	10 to 50
Cc1ccc(NC(=O)Nc2cc(O)c(N3CC(=O)NS3(=O)=O)c(F)c2)cc1 [Example 36, 1-[4-(1,1-dioxido-4-oxo-1,2,5-thiadiazolidin-2-yl)-3-fluoro-5-hydroxyphenyl]-3-(4-methylphenyl)urea]	< 5	50 to 100	≥ 100	50 to 75	10 to 50
O=C1CN(c2c(O)cc(-c3ccc(F)cc3)cc2F)S(=O)(=O)N1 [Example 8, 5-(3,4′-difluoro-5-hydroxybiphenyl-4-yl)-1,2,5-thiadiazolidin-3-one 1,1-dioxide]	100 to 500	≥ 100	≥ 100	10 to 50	10 to 50
O=C1CN(c2c(O)cc(-c3ccccc3F)cc2F)S(=O)(=O)N1 [Example 7, 5-(2′,3-difluoro-5-hydroxybiphenyl-4-yl)-1,2,5-thiadiazolidin-3-one 1,1-dioxide]	100 to 500	50 to 100	≥ 100	50 to 75	10 to 50
CCOc1ccccc1-c1cc(O)c(N2CC(=O)NS2(=O)=O)c(F)c1 [Example 5, 5-(2′-ethoxy-3-fluoro-5-hydroxybiphenyl-4-yl)-1,2,5-thiadiazolidin-3-one 1,1-dioxide]	100 to 500	≥ 100	≥ 100	50 to 75	10 to 50
CC(C)(C)OC(=O)N1CC(CNC(=O)Nc2cc(O)c(N3CC(=O)NS3(=O)=O)c(F)c2)C2(CCCCC2)C1 (stereo not drawn) [Example 101, tert-butyl 4-[[[3-fluoro-5-hydroxy-4-(1,1,4-trioxo-1,2,5-thiadiazolidin-2-yl)phenyl]carbamoyl-amino]methyl]-2-azaspiro[4.5]decane-2-carboxylate]	10 to 50	50 to 100	≥ 100	50 to 75	10 to 50
O=C1CN(c2c(O)cc(NC(=O)Nc3ccc(F)cc3)cc2F)S(=O)(=O)N1 [Example 53, 1-[4-(1,1-dioxido-4-oxo-1,2,5-thiadiazolidin-2-yl)-3-fluoro-5-hydroxyphenyl]-3-(4-fluorophenyl)urea]	5 to 10	≥ 100	≥ 100	10 to 50	10 to 50
